From PubChem BioAssay (NCI)
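Following 48 hours of exposure in 96-well plates, responses at five concentrations were used to interpolate endpoints linearly. Abbreviation: GI50, concentration required for 50% inhibition of growth. TGI denotes the concentration required for complete inhibition of growth.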

Columns and labels:
Assay in all cases: NCI tumour cell line growth inhibition, 48 h
CCRF-CEM leukemia = system: CCRF-CEM leukemia
MALME-3M melanoma = system: MALME-3M melanoma
MOLT-4 leukemia = system: MOLT-4 leukemia
SNB-75 CNS = system: SNB-75 CNS
HOP-92 NSCLC = system: HOP-92 NSCLC
SN12C renal = system: SN12C renal
NCI-H522 lung = system: NCI-H522 lung
CAKI-1 renal = system: CAKI-1 renal
UACC-257 melanoma = system: UACC-257 melanoma
U251 CNS = system: U251 CNS
SF-295 CNS = system: SF-295 CNS
NCI/ADR-RES ovarian = system: NCI/ADR-RES ovarian
MDA-MB-435 = system: MDA-MB-435
SK-MEL-28 melanoma = system: SK-MEL-28 melanoma
SK-MEL-2 melanoma = system: SK-MEL-2 melanoma
RXF 393 renal = system: RXF 393 renal
DU-145 prostate = system: DU-145 prostate
HCT-116 colon = system: HCT-116 colon
K-562 leukemia = system: K-562 leukemia
TK-10 renal = system: TK-10 renal
OVCAR-5 ovarian = system: OVCAR-5 ovarian
SF-268 CNS = system: SF-268 CNS
NCI-H226 lung = system: NCI-H226 lung
HOP-62 NSCLC = system: HOP-62 NSCLC
A498 renal = system: A498 renal
SF-539 CNS = system: SF-539 CNS
HL-60(TB) leukemia = system: HL-60(TB) leukemia

C(#Cc1ccccc1C#Cc1ccccn1)c1ccccn1
GI50 (CCRF-CEM leukemia): 13.8 µM | TGI (CCRF-CEM leukemia): 38.6 µM | GI50 (MALME-3M melanoma): 7.74 µM | TGI (MALME-3M melanoma): 21 µM | GI50 (MOLT-4 leukemia): 3.44 µM | TGI (MOLT-4 leukemia): 20.1 µM | GI50 (SNB-75 CNS): 18.5 µM | TGI (SNB-75 CNS): 42.6 µM | GI50 (HOP-92 NSCLC): 1.96 µM | TGI (HOP-92 NSCLC): 12.2 µM | GI50 (SN12C renal): 18.1 µM | TGI (SN12C renal): 35.1 µM | GI50 (NCI-H522 lung): 16.3 µM | TGI (NCI-H522 lung): 36.3 µM | GI50 (CAKI-1 renal): 18.3 µM | TGI (CAKI-1 renal): 42.5 µM | GI50 (UACC-257 melanoma): 19.3 µM | TGI (UACC-257 melanoma): 39.8 µM | GI50 (U251 CNS): 11.5 µM | TGI (U251 CNS): 25.3 µM | GI50 (SF-295 CNS): 16.8 µM | TGI (SF-295 CNS): 33.3 µM | GI50 (NCI/ADR-RES ovarian): 5.45 µM | TGI (NCI/ADR-RES ovarian): 29.4 µM | GI50 (MDA-MB-435): 8.43 µM | TGI (MDA-MB-435): 22.5 µM | GI50 (SK-MEL-28 melanoma): 27.4 µM | TGI (SK-MEL-28 melanoma): 84 µM | GI50 (SK-MEL-2 melanoma): 18.4 µM | TGI (SK-MEL-2 melanoma): 36 µM | GI50 (RXF 393 renal): 7.71 µM | TGI (RXF 393 renal): 24.4 µM | GI50 (DU-145 prostate): 19.8 µM | TGI (DU-145 prostate): 38 µM | GI50 (HCT-116 colon): 26.4 µM | TGI (HCT-116 colon): > 100 µM | GI50 (K-562 leukemia): 7.02 µM | TGI (K-562 leukemia): 27.1 µM | GI50 (TK-10 renal): 6.54 µM | TGI (TK-10 renal): 22.3 µM | GI50 (OVCAR-5 ovarian): 17.2 µM | TGI (OVCAR-5 ovarian): 40.5 µM | GI50 (SF-268 CNS): 17.7 µM | TGI (SF-268 CNS): 35.7 µM | GI50 (NCI-H226 lung): 16.6 µM | TGI (NCI-H226 lung): 37.9 µM | GI50 (HOP-62 NSCLC): 25.6 µM | TGI (HOP-62 NSCLC): > 100 µM | GI50 (A498 renal): 18 µM | TGI (A498 renal): 34.6 µM | GI50 (SF-539 CNS): 21.3 µM | TGI (SF-539 CNS): 40.2 µM | GI50 (HL-60(TB) leukemia): 3.92 µM
